Experimental data from patent US9481654B2, “Compositions and methods for inhibition of the JAK pathway” (Rigel Pharmaceuticals, Inc., priority 2006, dated 2016).

Experiments:
[1] = tested on: IFNγ induced ICAM-1 (CD54) up-regulation in A549 lung epithelial cells (JAK/Stat pathway); assay: A549 Epithelial Line Stimulated with IFNγ (ICAM-1 surface expression, flow cytometry); type: cell-based, human; settings: Table III Example 5
How it was run: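 A549 cells (20,000/well, adhered overnight) pre-treated with compound 1 h, then IFNγ 75 ng/mL for 24 h; compound 30 μM–14 nM in 5% FBS, 0.3% DMSO. Surface ICAM-1 stained with APC anti-CD54, geometric mean by flow cytometry; dose-response gives EC50.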

[2] = tested on: IL-4 stimulated CD23 upregulation in human Ramos B cells (JAK-1/JAK-3, Stat-6); assay: Assay for Ramos B-Cell Line Stimulated with IL-4 (CD23 upregulation, FACS); type: cell-based; settings: Table III Example 3
How it was run: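 Log-phase Ramos B cells (5×10^4 per point, RPMI with 5% serum) pre-incubated with compound or DMSO 1 h at 37° C, then stimulated with IL-4 at 50 units/mL final for 20-24 h. CD23 upregulation measured by staining and flow cytometry.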

Row | Structure (SMILES) | IC50 [1] | IC50 [2]
1 | Cc1ccc(Nc2ncc(F)c(Nc3cccc(CNS(=O)(=O)C4CC4)c3)n2)cc1S(N)(=O)=O [Compound I-34, N2-(3-aminosulfonyl-4-methyl)phenyl-N4-(3-cyclopropylsulfonylaminomethyl)phenyl-5-fluoro-2,4-pyrimidinediamine] | 5700 nM | 184 nM
2 | Cc1ccc(Nc2ncc(F)c(Nc3ccc(CNS(=O)(=O)C4CCCCC4)cc3)n2)cc1S(N)(=O)=O [Compound I-73, N2-(3-aminosulfonyl-4-methyl)phenyl-N4-(4-cyclohexylsulfonylaminomethyl)phenyl-5-fluoro-2,4-pyrimidinediamine] | 3570 nM | 89.9 nM
3 | CCS(=O)(=O)NCCc1ccc(Nc2nc(Nc3cccc(S(N)(=O)=O)c3)ncc2C)cc1 [Compound I-39, N2-(3-aminosulfonyl)phenyl-N4-[4-(2-ethylsulfonylamino)ethyl]phenyl-5-methyl-2,4-pyrimidinediamine] | 3750 nM | 46.2 nM
4 | NS(=O)(=O)c1cccc(Nc2ncc(F)c(Nc3ccc(CNS(=O)(=O)C4CCCCC4)cc3)n2)c1 [Compound I-72, N2-(3-aminosulfonyl)phenyl-N4-(4-cyclohexylsulfonylaminomethyl)phenyl-5-fluoro-2,4-pyrimidinediamine] | 2660 nM | 56.9 nM
5 | C#CCNS(=O)(=O)c1ccc(Nc2ncc(C)c(Nc3ccc(CNS(=O)(=O)C4CC4)cc3)n2)cc1 [Compound I-164, N4-(4-cyclopropylsulfonylaminomethyl)phenyl-5-methyl-N2-(4-propargylaminosulfonyl)phenyl-2,4-pyrimidinediamine] | 13800 nM | 61.3 nM
6 | NS(=O)(=O)c1ccc(Nc2ncc(F)c(Nc3ccc(CNS(=O)(=O)CC(F)(F)F)cc3)n2)cc1 [Compound I-48, N2-(4-aminosulfonyl)phenyl-5-fluoro-N4-(4-trifluoroethylsulfonylaminomethyl)phenyl-2,4-pyrimidinediamine] | 29900 nM | 263 nM
7 | CCCNS(=O)(=O)c1cccc(Nc2ncc(C)c(Nc3ccc(CNS(=O)(=O)C4CC4)cc3)n2)c1 [Compound I-178, N4-(4-cyclopropylsulfonylaminomethyl)phenyl-5-methyl-N2-(3-propylaminosulfonyl)phenyl-2,4-pyrimidinediamine] | 5450 nM | 23 nM
8 | COCCCNS(=O)(=O)c1cc(Nc2ncc(C)c(Nc3ccc(CNS(=O)(=O)C4CC4)cc3)n2)ccc1C [Compound I-191, N4-(4-cyclopropylsulfonylaminomethyl)phenyl-N2-[3-(3-methoxypropyl)aminosulfonyl-4-methyl]phenyl-5-methyl-2,4-pyrimidinediamine] | 3060 nM | 51.2 nM
9 | Cc1cnc(Nc2ccc(S(N)(=O)=O)cc2)nc1Nc1ccc2c(c1)CCN(S(=O)(=O)C1CC1)C2 [II-1, N2-(4-aminosulfonyl)phenyl-N4-[(N-cyclopropylsulfonyl)-1,2,3,4-tetrahydroisoquinolin-6-yl]-5-methyl-2,4-pyrimidinediamine] | 18300 nM | 42.3 nM
10 | Cc1ccc(Nc2ncc(C)c(Nc3cccc(CNS(=O)(=O)C4CC4)c3)n2)cc1S(N)(=O)=O [Compound I-52, N2-(3-aminosulfonyl-4-methyl)phenyl-N4-(3-cyclopropylsulfonylaminomethyl)phenyl-5-methyl-2,4-pyrimidinediamine] | 2550 nM | 68.5 nM
11 | Cc1cnc(Nc2ccc(S(N)(=O)=O)cc2)nc1Nc1ccc(CNS(=O)(=O)C(C)C)cc1 [Compound I-123, N2-(4-aminosulfonyl)phenyl-N4-(4-isopropylsulfonylaminomethyl)phenyl-5-methyl-2,4-pyrimidinediamine] | 19000 nM | 83.6 nM
12 | Cc1cnc(Nc2ccc(S(N)(=O)=O)cc2)nc1Nc1cccc(CN(C)S(=O)(=O)C2CC2)c1 [Compound I-124, N2-(4-aminosulfonyl)phenyl-N4-[3-(N-cyclopropylsulfonyl-N-methyl)aminomethyl]phenyl-5-methyl-2,4-pyrimidinediamine] | 5720 nM | 89.8 nM
13 | Cc1ccc(Nc2ncc(C)c(Nc3ccc(CNS(=O)(=O)C4CC4)cc3)n2)cc1S(=O)(=O)NC(C)C [Compound I-189, N4-(4-cyclopropylsulfonylaminomethyl)phenyl-N2-(3-isopropylaminosulfonyl-4-methyl)phenyl-5-methyl-2,4-pyrimidinediamine] | 1720 nM | 35.2 nM
14 | Cc1ccc(Nc2ncc(C)c(Nc3ccc(CNS(=O)(=O)C4CC4)cc3)n2)cc1S(=O)(=O)NCC1CC1 [Compound I-192, N2-(3-cyclopropylmethylaminosulfonyl-4-methyl)phenyl-N4-(4-cyclopropylsulfonylaminomethyl)phenyl-5-methyl-2,4-pyrimidinediamine] | 2300 nM | 54.7 nM
15 | Cc1cnc(Nc2cccc(S(=O)(=O)NC(C)C)c2)nc1Nc1ccc(CNS(=O)(=O)C2CC2)cc1 [Compound I-173, N4-(4-cyclopropylsulfonylaminomethyl)phenyl-N2-(3-isopropylaminosulfonyl)phenyl-5-methyl-2,4-pyrimidinediamine] | 1880 nM | 34.8 nM
16 | Cc1cnc(Nc2cccc(S(N)(=O)=O)c2)nc1Nc1ccc(CNS(=O)(=O)CC(F)(F)F)cc1 [Compound I-97, N2-(3-aminosulfonyl)phenyl-5-methyl-N4-(4-trifluoroethylsulfonylaminomethyl)phenyl-2,4-pyrimidinediamine] | 13300 nM | 34.7 nM
17 | COCCNS(=O)(=O)c1cc(Nc2ncc(C)c(Nc3cccc(CNS(=O)(=O)C4CC4)c3)n2)ccc1C [Compound I-210, N4-(3-cyclopropylsulfonylaminomethyl)phenyl-N2-[3-(2-methoxyethyl)aminosulfonyl-4-methyl]phenyl-5-methyl-2,4-pyrimidinediamine] | 2470 nM | 128 nM
18 | Cc1cnc(Nc2cc(S(N)(=O)=O)cc(S(N)(=O)=O)c2)nc1Nc1ccc(CNS(=O)(=O)C2CC2)cc1 [Compound I-84, N4-(4-cyclopropylsulfonylaminomethyl)phenyl-N2-(3,5-diaminosulfonyl)phenyl-5-methyl-2,4-pyrimidinediamine] | 9530 nM | 355 nM
19 | Cc1ccc(Nc2ncc(F)c(Nc3ccc(CNS(=O)(=O)C(C)C)cc3)n2)cc1S(N)(=O)=O [Compound I-67, N2-(3-aminosulfonyl-4-methyl)phenyl-5-fluoro-N4-(4-isopropylsulfonylaminomethyl)phenyl-2,4-pyrimidinediamine] | 3290 nM | 82.4 nM
20 | CCNS(=O)(=O)c1cccc(Nc2ncc(C)c(Nc3ccc(CNS(=O)(=O)C4CC4)cc3)n2)c1 [Compound I-176, N4-(4-cyclopropylsulfonylaminomethyl)phenyl-N2-(3-ethylaminosulfonyl)phenyl-5-methyl-2,4-pyrimidinediamine] | 10400 nM | 7.98 nM
21 | Cc1cnc(Nc2cccc(S(N)(=O)=O)c2)nc1Nc1ccc(CNS(=O)(=O)C2CC2)c(Cl)c1 [Compound I-119, N2-(3-aminosulfonyl)phenyl-N4-(3-chloro-4-cyclopropylsulfonylaminomethyl)phenyl-5-methyl-2,4-pyrimidinediamine] | 4420 nM | 53.5 nM
22 | CCCN(Cc1ccc(Nc2nc(Nc3cccc(S(N)(=O)=O)c3)ncc2C)cc1)S(=O)(=O)C1CC1 [Compound I-80, N2-(3-aminosulfonyl)phenyl-N4-[4-(N-cyclopropylsulfonyl-N-propylamino)methyl]phenyl-5-methyl-2,4-pyrimidinediamine] | 4130 nM | 37.1 nM
23 | CCS(=O)(=O)NCc1cccc(Nc2nc(Nc3ccc(C)c(S(N)(=O)=O)c3)ncc2F)c1 [Compound I-13, N2-(3-aminosulfonyl-4-methyl)phenyl-N4-(3-ethylsulfonylaminomethyl)phenyl-5-fluoro-2,4-pyrimidinediamine] | 3630 nM | 136 nM
24 | Cc1cnc(Nc2cccc(S(N)(=O)=O)c2)nc1Nc1ccc2c(c1)CN(S(=O)(=O)C1CC1)C2 [II-8, N2-(3-Aminosulfonyl-phenyl)-N4-[(2-cyclopropylsulfonyl)-isoindolin-5-yl]-5-methyl-2,4-pyrimidinediamine] | 17800 nM | 97.9 nM
25 | CCS(=O)(=O)NCc1cccc(Nc2nc(Nc3cccc(S(N)(=O)=O)c3)ncc2F)c1 [Compound I-12, N2-(3-aminosulfonyl)phenyl-N4-(3-ethylsulfonylaminomethyl)phenyl-5-fluoro-2,4-pyrimidinediamine] | 4570 nM | 170 nM
26 | CCNS(=O)(=O)c1cccc(Nc2ncc(C)c(Nc3cccc(CNS(=O)(=O)C4CC4)c3)n2)c1 [Compound I-208, N4-(3-cyclopropylsulfonylaminomethyl)phenyl-N2-(3-ethylaminosulfonyl)phenyl-5-methyl-2,4-pyrimidinediamine] | 1300 nM | 74.3 nM
27 | Cc1cnc(Nc2cccc(S(=O)(=O)NCc3ccccc3)c2)nc1Nc1ccc(CNS(=O)(=O)C2CC2)cc1 [Compound I-154, N2-(3-benzylaminosulfonyl)phenyl-N4-(4-cyclopropylsulfonylaminomethyl)phenyl-5-methyl-2,4-pyrimidinediamine] | 6350 nM | 84.6 nM
28 | COCCNS(=O)(=O)c1cc(Nc2ncc(C)c(Nc3ccc(CNS(=O)(=O)C4CC4)cc3)n2)ccc1C [Compound I-190, N4-(4-cyclopropylsulfonylaminomethyl)phenyl-N2-[3-(2-methoxyethyl)aminosulfonyl-4-methyl]phenyl-5-methyl-2,4-pyrimidinediamine] | 1360 nM | 72.6 nM
